# Tested on: rabbit skeletal myofibrils (fast skeletal myofibrils)
# Experiment: Activation of fast skeletal myofibrils (PUMA assay, PK/LDH-coupled ATPase at pCa25)
# Assay type: biochemical
# Settings: AC1.4 determined according to the procedure of Example 39; reported as class symbols
# Protocol: Preparation of Fast Skeletal Myofibrils.
# Rabbit skeletal myofibrils were prepared based upon the method of Herrmann et al. (Biochem. 32(28):7255-7263(1993). Myofibrils were prepared from rabbit psoas muscle purchased from Pel-Freez Biologicals (Arkansas) within 2 days of ordering, stored on ice. Minced muscle was homogenized in 10 volumes of ice-cold “standard” buffer (50 mM Tris, pH 7.4, 0.1M potassium acetate, 5 mM KCl, 2 mM DTT, 0.2 mM PMSF, 10 μM leupeptin, 5 μM pepstatin, and 0.5 mM sodium azide) containing 5 mM EDTA and 0.5% Triton X-100 using an Omni-Macro homogenizer. Myofibrils were recovered by low speed centrifugation (3000 rpm for 10 minutes) and washed 2 times in the Triton X-100 containing buffer to ensure removal of cellular membrane. Following the Triton washes, myofibrils were washed 3 times in “standard” buffer containing 2 mM magnesium acetate. A final wash in assay buffer (12 mM PIPES, pH 6.8, 60 mM KCl, 1 mM DTT) was performed and brought to 10% sucrose for flash freezing in liquid nitrogen and storage at −80° C.
# Activation of Fast Skeletal Myofibrils.
# Fast fiber activators were identified by measuring the enzymatic activity of muscle myofibril preparations using the proprietary PUMA™ (see, e.g., U.S. Pat. Nos. 6,410,254, 6,743,599, 7,202,051, and 7,378,254) assay system. Myofibril preparations consisted of rabbit skeletal muscle (approximately 90% fast fibers) that had been mechanically homogenized and washed with a detergent (triton X-100) to remove cellular membranes. This preparation retained all of the sarcomeric components in a native conformation and the enzymatic activity was still regulated by calcium. Compounds were tested using a myofibril suspension and a level of calcium sufficient to increase enzymatic activity of the myofibrils to 25% of their maximal rate (termed pCa25). Enzymatic activity was tracked via a pyruvate kinase and lactate dehydrogenase-coupled enzyme system. This assay regenerates myosin-produced ADP into ATP by oxidizing NADH, producing an absorbance change at 340 nm. The buffering system was 12 mM Pipes, 2 mM MgCl2, 1 mM DTT at pH 6.8 (PM12 buffer).
# Using procedures similar to those described herein, utilizing reagents and intermediates commercially available (e.g., Sigma-Aldrich, St. Louis, Mo.) or readily synthesized by one of skill in the art, the compounds in Table 2 were synthesized, characterized and tested. AC1.4 values were determined according to the procedure described in Example 39, and the reported median AC1.4 values are as follows: A=<1 uM; B=1-10 uM; C=10-20 uM; D=>20 uM.
row,Mean AC1.4,Compound
1,A (A=<1 uM),N#Cc1ccnc(C2(CNc3ccc(-c4ccc5[nH]ncc5c4)nn3)CCC2)c1
2,C (C=10-20 uM),NC(=O)c1ccnc(C2(CNc3ccc(-c4ccc5[nH]ncc5c4)nn3)CCC2)c1
3,D (D=>20 uM),NC(=O)c1ccnc(C2(CNc3ccc(-c4cc(C(N)=O)ccc4F)nn3)CCC2)c1
4,D (D=>20 uM),NC(=O)c1cccc(-c2ccc(NCC3(c4cc(C(N)=O)ccn4)CCC3)nn2)c1
5,B (B=1-10 uM),NCC(=O)Nc1n[nH]c2ccc(-c3ccc(NCC4(c5ncccc5F)CCC4)nn3)cc12
6,B (B=1-10 uM),O=C(O)c1cc(-c2ccc(NCC3(c4ncccc4F)CCC3)nn2)ccc1F
7,D (D=>20 uM),CC(C)(CNc1ccc(-c2cccc(C#N)c2)nn1)OCc1ccccc1
8,D (D=>20 uM),CC(C)(CNc1ccc(-c2cccc(C(N)=O)c2)nn1)OCc1ccccc1
9,A (A=<1 uM),NC(=O)c1cccc(-c2ccc(NCC3(c4ccccn4)CCC3)nn2)c1
10,C (C=10-20 uM),CC(Nc1ccc(-c2cccc(C(N)=O)c2)nn1)c1ccc(F)cc1 (stereo not shown)
11,D (D=>20 uM),N=C(N)c1cccc(-c2ccc(NCC3(c4ncccc4F)CCC3)nn2)c1
12,B (B=1-10 uM),Cc1ccc(C(N)=O)cc1-c1ccc(NCC2(c3ncccc3F)CCC2)nn1
13,B (B=1-10 uM),N#Cc1ccnc(C2(CNc3ccc(-c4cccc(C(N)=O)c4)nn3)CCC2)c1
14,B (B=1-10 uM),N#Cc1ccnc(C2(CNc3ccc(-c4cc(C(N)=O)ccc4F)nn3)CCC2)c1
15,A (A=<1 uM),NC(=O)c1cccc(-c2ccc(NCC3(c4ccc(F)cc4)CCC3)nn2)c1
16,B (B=1-10 uM),N#Cc1cccc(C2(CNc3ccc(-c4cccc(C(N)=O)c4)nn3)CCC2)n1
17,D (D=>20 uM),NC(=O)c1cccc(-c2ccc(NCC3(c4cnccn4)CCC3)nn2)c1
18,D (D=>20 uM),CC(Nc1ccc(-c2cccc(C(N)=O)c2)nn1)c1ccccc1 (stereo not shown)
19,B (B=1-10 uM),NC(=O)n1nc(N)c2cc(-c3ccc(NCC4(c5ncccc5F)CCC4)nn3)ccc21
20,B (B=1-10 uM),O=C1Cc2c(cccc2-c2ccc(NCC3(c4ncccc4F)CCC3)nn2)N1
21,D (D=>20 uM),COc1ccc(C2(CNc3ccc(-c4cc(C(N)=O)ccc4F)nn3)CCC2)nc1
22,B (B=1-10 uM),CC(C)(CNc1ccc(-c2ccc(=O)[nH]c2)nn1)c1ccc(F)cc1

row,Mean AC1.4,Compound
1,D (D=>20 uM),CC(C)(CNc1ccc(-c2cnc(=O)[nH]c2)nn1)c1ccc(F)cc1
2,A (A=<1 uM),CC(C)(CNc1ccc(-c2ccc3[nH]c(=O)[nH]c3c2)nn1)c1ccc(F)cc1
3,B (B=1-10 uM),NC(=O)c1cc(C(N)=O)cc(-c2ccc(NCC3(c4ncccc4F)CCC3)nn2)c1
4,D (D=>20 uM),O=C(O)c1cc(C(=O)O)cc(-c2ccc(NCC3(c4ncccc4F)CCC3)nn2)c1
5,D (D=>20 uM),CC1(C)C(=O)Nc2cc(-c3ccc(NCC4(c5ncccc5F)CCC4)nn3)ccc21
6,B (B=1-10 uM),N#Cc1ccc(C2(CNc3ccc(-c4ccc5[nH]ncc5c4)nn3)CCC2)nc1
7,B (B=1-10 uM),NC(=O)c1cccc(C2(CNc3ccc(-c4ccc5[nH]ncc5c4)nn3)CCC2)n1
8,B (B=1-10 uM),N#Cc1cccc(C2(CNc3ccc(-c4ccc5[nH]ncc5c4)nn3)CCC2)n1
9,D (D=>20 uM),NC(=O)c1cccc(-c2ccc(NCC3(c4cccc(C(N)=O)n4)CCC3)nn2)c1
10,B (B=1-10 uM),CC(=O)Nc1cccc(-c2ccc(NCC3(c4ncccc4F)CCC3)nn2)c1
11,D (D=>20 uM),CC(=O)Nc1nc(-c2ccc(NCC3(c4ncccc4F)CCC3)nn2)c[nH]1
12,B (B=1-10 uM),CC(=O)Nc1n[nH]c2ccc(-c3ccc(NCC4(c5ncccc5F)CCC4)nn3)cc12
13,C (C=10-20 uM),COC(=O)NCc1ccc(-c2ccc(NCC(C)(C)c3ccc(F)cc3)nn2)cn1
14,B (B=1-10 uM),OCc1ccccc1-c1ccc(NCC2(c3ncccc3F)CCC2)nn1
15,B (B=1-10 uM),CNC(=O)c1cc(-c2ccc(NCC3(c4ncccc4F)CCC3)nn2)ccc1F
16,A (A=<1 uM),CS(=O)(=O)Nc1n[nH]c2ccc(-c3ccc(NCC4(c5ncccc5F)CCC4)nn3)cc12
17,A (A=<1 uM),Fc1cccnc1C1(CNc2ccc(-c3ccccc3OC(F)(F)F)nn2)CCC1
18,A (A=<1 uM),NC(=O)Nc1cccc(-c2ccc(NCC3(c4ncccc4F)CCC3)nn2)c1
19,B (B=1-10 uM),N=C(N)Nc1cccc(-c2ccc(NCC3(c4ncccc4F)CCC3)nn2)c1
20,B (B=1-10 uM),N=C(N)Nc1ccc(-c2ccc(NCC3(c4ncccc4F)CCC3)nn2)cc1
21,B (B=1-10 uM),N=C(N)Nc1n[nH]c2ccc(-c3ccc(NCC4(c5ncccc5F)CCC4)nn3)cc12

# Same assay, conditions: median AC1.4 class, procedure of Example 39
row,Mean AC1.4,Compound
1,D (D=>20 uM),NC(=O)c1cccc(-c2ccc(NC3(c4ncccc4OC(F)F)CCC3)nn2)c1
2,C (C=10-20 uM),NC(=O)c1ccc(F)c(-c2ccc(NC3(c4ncccc4OC(F)F)CCC3)nn2)c1
3,A (A=<1 uM),NC(=O)c1ccc(F)c(-c2ccc(NC3(c4ncccc4Br)CCC3)nn2)c1
4,D (D=>20 uM),NC(=O)c1ccc(C2(Nc3ccc(-c4cccc(C(N)=O)c4)nn3)CCC2)cc1
5,D (D=>20 uM),N#Cc1ccnc(C2(Nc3ccc(-c4cc(C(N)=O)ccc4F)nn3)CCC2)c1
6,D (D=>20 uM),NC(=O)c1ccc(F)c(-c2ccc(NC3(c4ccc(OC(F)F)cn4)CCC3)nn2)c1
7,D (D=>20 uM),N#Cc1ccc(C2(Nc3ccc(-c4cc(C(N)=O)ccc4F)nn3)CCC2)nc1
8,A (A=<1 uM),NC(=O)c1cccc(-c2ccc(NC3(c4cccc(OC(F)F)n4)CCC3)nn2)c1
9,A (A=<1 uM),NC(=O)c1ccc(F)c(-c2ccc(NC3(c4cccc(OC(F)F)n4)CCC3)nn2)c1
10,B (B=1-10 uM),N#Cc1cccc(C2(Nc3ccc(-c4cc(C(N)=O)ccc4F)nn3)CCC2)n1
11,B (B=1-10 uM),COc1cccc(C2(Nc3ccc(-c4cccc(C(N)=O)c4)nn3)CCC2)n1
12,B (B=1-10 uM),NC(=O)c1ccc(Cl)c(-c2ccc(NC3(c4ncccc4F)CCC3)nn2)c1
13,D (D=>20 uM),CC(C)(Nc1ccc(-c2cc(C(N)=O)ccc2F)nn1)c1cccc(=O)[nH]1
14,B (B=1-10 uM),N#Cc1ccc(F)c(-c2ccc(NC3(c4ncccc4F)CCC3)nn2)c1
15,D (D=>20 uM),NC(=O)c1ccc(F)c(-c2ccc(NC3(c4ncccc4O)CCC3)nn2)c1
16,C (C=10-20 uM),COc1cccnc1C1(Nc2ccc(-c3cc(C(N)=O)ccc3F)nn2)CCC1
17,B (B=1-10 uM),O=C(O)c1ccc(F)c(-c2ccc(NC3(c4ccc(F)cc4)CCC3)nn2)c1

row,Mean AC1.4,Compound
1,D (D=>20 uM),NC(=O)c1ccc(F)c(-c2ccc(NC3(c4ccc(O)cn4)CCC3)nn2)c1
2,D (D=>20 uM),COc1ccc(C2(Nc3ccc(-c4cc(C(N)=O)ccc4F)nn3)CCC2)nc1
3,A (A=<1 uM),COc1cccc(C2(Nc3ccc(-c4cc(C(N)=O)ccc4F)nn3)CCC2)n1
4,D (D=>20 uM),CC1(Nc2ccc(-c3cc(C(N)=O)ccc3F)nn2)CCC1
5,C (C=10-20 uM),CS(=O)(=O)Nc1cccc(-c2ccc(NC3(c4ncccc4OC(F)F)CCC3)nn2)c1
6,B (B=1-10 uM),CS(=O)(=O)Nc1cccc(-c2ccc(NC3(c4ncccc4F)CCC3)nn2)c1
7,A (A=<1 uM),CS(=O)(=O)Nc1cccc(-c2ccc(NC3(c4cccc(OC(F)F)n4)CCC3)nn2)c1
8,B (B=1-10 uM),COc1cccc(C2(Nc3ccc(-c4cccc(NS(C)(=O)=O)c4)nn3)CCC2)n1
9,B (B=1-10 uM),CNC(=O)c1cc(-c2ccc(NC3(c4ccc(F)cc4)CCC3)nn2)ccn1
10,B (B=1-10 uM),CC(C)(O)CNC(=O)c1ccc(F)c(-c2ccc(NC3(c4ccc(F)cc4)CCC3)nn2)c1
11,B (B=1-10 uM),NC(=O)Nc1ccc(-c2ccc(NC3(c4ncccc4F)CCC3)nn2)c(F)c1
12,B (B=1-10 uM),NC(=O)Nc1ccc(-c2ccc(NC3(c4ncccc4F)CCC3)nn2)cc1
13,B (B=1-10 uM),NS(=O)(=O)Nc1ccc(-c2ccc(NC3(c4ncccc4F)CCC3)nn2)c(F)c1
14,B (B=1-10 uM),NS(=O)(=O)Nc1ccc(F)c(-c2ccc(NC3(c4ncccc4F)CCC3)nn2)c1
15,D (D=>20 uM),CCOC(=O)/C=C/c1ccc(NC2(c3ncccc3F)CCC2)nn1
16,D (D=>20 uM),CCOC(=O)/C=C/c1ccc(NCC2(c3ncccc3F)CCC2)nn1
